This is an account of results in patent US20250195513A1, “DEGRADATION OF IRAK4 BY CONJUGATION OF IRAK4 INHIBITORS WITH E3 LIGASE LIGAND AND METHODS OF USE” (BeiGene, Ltd., priority 2022, published 2025).

Each structure is given as a SMILES string.

Format in all cases: cell-based
Experiment [1] concerns the target T1, IRAK4 (Homo sapiens, UniProt Q9NWZ3).
T1 construct: endogenous in cells; host or cells: Karpas299
T1 sequence (Q9NWZ3 1-460): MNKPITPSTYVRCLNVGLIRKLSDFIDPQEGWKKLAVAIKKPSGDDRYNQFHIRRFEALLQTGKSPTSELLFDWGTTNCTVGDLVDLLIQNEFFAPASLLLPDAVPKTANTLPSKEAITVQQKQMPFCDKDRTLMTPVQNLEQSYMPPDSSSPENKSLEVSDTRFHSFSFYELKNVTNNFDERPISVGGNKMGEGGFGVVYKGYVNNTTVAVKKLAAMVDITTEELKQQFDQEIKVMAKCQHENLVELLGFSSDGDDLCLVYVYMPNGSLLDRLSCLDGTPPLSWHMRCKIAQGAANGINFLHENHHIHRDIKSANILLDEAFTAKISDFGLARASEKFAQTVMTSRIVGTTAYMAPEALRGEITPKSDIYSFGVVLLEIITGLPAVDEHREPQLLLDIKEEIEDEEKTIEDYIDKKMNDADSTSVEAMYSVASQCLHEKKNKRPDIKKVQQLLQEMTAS
As to the kind of experiment: IRAK4 Degradation Assay (Karpas299, HTRF/TR-FRET). The settings on record: Karpas-299 cells; for Dmax: maximum percentage of degradation. The method in brief:
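Karpas299 cells at 0.2 million per well were exposed to serially diluted compounds for 24 h or 5 h, then lysed. IRAK4 remaining in lysates was quantified by HTRF (665/620 nm) after overnight antibody incubation at room temperature. Percent degradation was fitted to a four-parameter curve to give IC50 (DC50).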
On the technique in general: In TR-FRET formats the signal depends on donor and acceptor labels being close together.

Experiment [2] concerns TNF-α production in THP-1 cells. The experiment in a line: TNF-α Production Assay in THP-1 Cells (LPS stimulated). The conditions noted are these: Homo sapiens, THP-1, 24 h; for Emax: maximum inhibition, read-out: TNF-α (THP-1) 24 h IMax. The essentials: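 Cells (0.2 million/well) pretreated with compounds for 24 h, then stimulated with LPS at 1 μg/mL final for 24 h. TNF-α in culture supernatant quantified by TR-FRET immunoassay.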

Experiment [3] deals with T1, IRAK4. The experiment in a line: IRAK4 Degradation Assay with Human Serum (Karpas299, HTRF/TR-FRET). The conditions noted are these: Karpas-299 in human serum, 24 hrs treatment; for DC50: read-out: IRAK4 degradtion with human serum assay DC50; for Dmax: read-out: IRAK4 degradtion with human serum assay Dmax (%). The essentials: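 Karpas299 cells in human AB serum (0.2 million/well) treated with serial compound dilutions for 24 h. After lysis, IRAK4 quantified by HTRF (overnight antibody incubation at room temperature, 665/620 nm read). Degradation percentage fitted to four-parameter curve to give DC50.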

For experiment [4], the system named is IL-6 production in human PBMC. The experiment in a line: IL-6 Production Assay in Human PBMC (LPS stimulated). The settings on record: Homo sapiens, 5 h; for Emax: maximum inhibition, read-out: IL-6 (PBMC) 5 h IMax. The essentials: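 Thawed PBMC were rested overnight at 37 °C, seeded at 0.2 million cells/well and pretreated with compounds for 24 h. They were then stimulated with LPS at 10 ng/mL for 5 h. IL-6 in the supernatant was quantified by TR-FRET.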

The mark [5] stands for this setting: 24 h treatment, read-out: IRAK4 in Karpas-299 (24 h) Dmax (%).
The mark [6] stands for this setting: 24 h treatment, read-out: IRAK4 in Karpas-299 (24 h) DC50.
Where [7] appears, read: 5 h treatment, read-out: IRAK4 in Karpas-299 (5 h) Dmax (%).
Where [8] appears, read: 5 h treatment, read-out: IRAK4 in Karpas-299 (5 h) DC50.

In the case of `COC[C@H]1CN(CCc2cc(F)c([C@H]3CCC(=O)NC3=O)c(F)c2)CCN1[C@H]1CC[C@H](n2cc3cc(NC(=O)c4ccc5cc(C#N)cnn45)c(C(C)(C)O)cc3n2)CC1` [Example 321, 3-cyano-N-(2-((1R,4r)-4-((R)-4-(4-((R)-2,6-dioxopiperidin-3-yl)-3,5-difluorophenethyl)-2-(methoxymethyl)piperazin-1-yl)cyclohexyl)-6-(2-hydroxypropan-2-yl)-2H-indazol-5-yl)pyrrolo[1,2-b]pyridazine-7-carboxamide], the Dmax (in general, the greatest extent of degradation seen) came out at 96% on IRAK4 [1] (setting [5]) and 98% on IRAK4 [3]. Moreover, the values for the DC50 at IRAK4 [1] (setting [6]) and at IRAK4 [3] were 1.4 nM and 5.5 nM, respectively. Also, the IC50 (as a rule, the midpoint of a concentration-inhibition curve) was determined as 55 nM in experiment [2] and 0.4 nM in experiment [4]. In addition, the values for the Emax in experiment [2] and in experiment [4] were 77% and 58%, respectively.

As for `Cc1nc(C2CCC(=O)NC2=O)ccc1N1CCC(N2CCN([C@H]3CC[C@H](n4cc5cc(NC(=O)c6ccc7cc(C#N)cnn67)c(C(C)(C)O)cc5n4)CC3)CC2)CC1` (stereo partly drawn) [Example 398, 3-cyano-N-(2-((1r,4r)-4-(4-(1-(6-(2,6-dioxopiperidin-3-yl)-2-methylpyridin-3-yl)piperidin-4-yl)piperazin-1-yl)cyclohexyl)-6-(2-hydroxypropan-2-yl)-2H-indazol-5-yl)pyrrolo[1,2-b]pyridazine-7-carboxamide], the Dmax at IRAK4 [1] (setting [7]) worked out at 97%; at IRAK4 [1] (setting [5]), 97%; on IRAK4 [3], 98%. Also, the figures for the DC50 at IRAK4 [1] (setting [8]), on IRAK4 [1] (setting [6]) and at IRAK4 [3] were 1.9 nM, 2.3 nM and 2.6 nM, respectively. The values for the IC50 in experiment [2] and in experiment [4] were 21 nM and 2.4 nM, respectively. Also, the Emax in experiment [2] stood at 97%; in experiment [4], 70%.

For the compound `CC(C)(O)c1cc2nn([C@H]3CC[C@H](N4CCN(CC5CN(c6cc(F)c([C@H]7CCC(=O)NC7=O)c(F)c6)C5)CC4)CC3)cc2cc1NC(=O)c1ccc2cc(C#N)cnn12` [Example 290, 3-cyano-N-(2-((1r,4r)-4-(4-((1-(4-((R)-2,6-dioxopiperidin-3-yl)-3,5-difluorophenyl)azetidin-3-yl)methyl)piperazin-1-yl)cyclohexyl)-6-(2-hydroxypropan-2-yl)-2H-indazol-5-yl)pyrrolo[1,2-b]pyridazine-7-carboxamide], the values for the Dmax at IRAK4 [1] (setting [5]) and on IRAK4 [3] were 98% and 99%, respectively. The DC50 – broadly, the midpoint of the concentration-degradation curve – at IRAK4 [1] (setting [6]) came to 0.6 nM; at IRAK4 [3], 4.4 nM. For the same compound, the IC50 in experiment [2] was 9 nM; in experiment [4] it was 0.8 nM. In addition, the Emax is 96% in experiment [2] and 71% in experiment [4].

On to `COC[C@H]1CN([C@H]2CC[C@H](n3cc4cc(NC(=O)c5ccc6cc(C#N)cnn56)c(C(C)(C)O)cc4n3)CC2)CCN1C1CCN(c2cc(F)c([C@H]3CCC(=O)NC3=O)c(F)c2)CC1` [Example 317, 3-cyano-N-(2-((1R,4r)-4-((R)-4-(1-(4-((R)-2,6-dioxopiperidin-3-yl)-3,5-difluorophenyl)piperidin-4-yl)-3-(methoxymethyl)piperazin-1-yl)cyclohexyl)-6-(2-hydroxypropan-2-yl)-2H-indazol-5-yl)pyrrolo[1,2-b]pyridazine-7-carboxamide], for which the Dmax came out at 95% on IRAK4 [1] (setting [7]), 96% on IRAK4 [1] (setting [5]) and 100% on IRAK4 [3]. For the same compound, the values for the DC50 at IRAK4 [1] (setting [8]), at IRAK4 [1] (setting [6]) and at IRAK4 [3] were 1.9 nM, 0.8 nM and 25 nM, respectively. Also, the IC50 came out at 41 nM in experiment [2] and 1 nM in experiment [4]. Moreover, the Emax in experiment [2] amounted to 87%; in experiment [4] it was 71%.

For `COC[C@@H]1CN(CC2CN(c3cc(F)c([C@H]4CCC(=O)NC4=O)c(F)c3)C2)CCN1[C@H]1CC[C@H](n2cc3cc(NC(=O)c4ccc5cc(C#N)cnn45)c(C(C)(C)O)cc3n2)CC1` [Example 326, 3-cyano-N-(2-((1S,4r)-4-((S)-4-((1-(4-((R)-2,6-dioxopiperidin-3-yl)-3,5-difluorophenyl)azetidin-3-yl)methyl)-2-(methoxymethyl)piperazin-1-yl)cyclohexyl)-6-(2-hydroxypropan-2-yl)-2H-indazol-5-yl)pyrrolo[1,2-b]pyridazine-7-carboxamide], the Dmax on IRAK4 [1] (setting [7]) turned out to be 97%; on IRAK4 [1] (setting [5]), 100%; on IRAK4 [3] it was 95%. Further, the DC50 is 1.9 nM at IRAK4 [1] (setting [8]), 0.7 nM on IRAK4 [1] (setting [6]) and 2.9 nM at IRAK4 [3]. Also, the results for the IC50 in experiment [2] and in experiment [4] were 13 nM and 1.9 nM, respectively. In addition, the Emax in experiment [2] was found to be 99%; in experiment [4], 65%.

Consider `CC(C)(O)c1cc2nn([C@H]3CC[C@H](N4CCN(C5CN(c6cc(F)c([C@H]7CCC(=O)NC7=O)c(F)c6)C5)CC4)CC3)cc2cc1NC(=O)c1ccc2cc(C#N)cnn12` [Example 110, 3-cyano-N-(2-((1R,4r)-4-(4-(1-(4-((R)-2,6-dioxopiperidin-3-yl)-3,5-difluorophenyl)azetidin-3-yl)piperazin-1-yl)cyclohexyl)-6-(2-hydroxypropan-2-yl)-2H-indazol-5-yl)pyrrolo[1,2-b]pyridazine-7-carboxamide], for which the Dmax came to 94% on IRAK4 [1] (setting [7]), 98% on IRAK4 [1] (setting [5]) and 100% on IRAK4 [3]. Moreover, the DC50 on IRAK4 [1] (setting [8]) came out at 1.1 nM; on IRAK4 [1] (setting [6]), 0.8 nM; on IRAK4 [3] it was 8.3 nM. In addition, the IC50 in experiment [2] stood at 27 nM; in experiment [4], 1.5 nM. In addition, the Emax in experiment [2] amounted to 83%; in experiment [4], 63%.

Turning to `CC(C)(O)c1cc2nn(C34CCC(N5CCN(C6CCN(c7cc(F)c([C@H]8CCC(=O)NC8=O)c(F)c7)CC6)CC5)(CC3)CC4)cc2cc1NC(=O)c1ccc2cc(C#N)cnn12` [Example 333, (R)-3-cyano-N-(2-(4-(4-(1-(4-(2,6-dioxopiperidin-3-yl)-3,5-difluorophenyl)piperidin-4-yl)piperazin-1-yl)bicyclo[2.2.2]octan-1-yl)-6-(2-hydroxypropan-2-yl)-2H-indazol-5-yl)pyrrolo[1,2-b]pyridazine-7-carboxamide], the results for the Dmax on IRAK4 [1] (setting [7]), at IRAK4 [1] (setting [5]) and on IRAK4 [3] were 98%, 97% and 93%, respectively. For the same compound, the DC50 worked out at 3.9 nM on IRAK4 [1] (setting [8]), 2.4 nM on IRAK4 [1] (setting [6]) and 23 nM at IRAK4 [3]. Moreover, the IC50 in experiment [2] came to 10 nM; in experiment [4], 4.7 nM. Besides, the Emax stood at 96% in experiment [2] and 62% in experiment [4].

`C[C@@H]1CN(CCc2cc(F)c([C@H]3CCC(=O)NC3=O)c(F)c2)CCN1[C@H]1CC[C@H](n2cc3cc(NC(=O)c4ccc5cc(C#N)cnn45)c(C(C)(C)O)cc3n2)CC1` [Example 299, 3-cyano-N-(2-((1R,4r)-4-((R)-4-(4-((R)-2,6-dioxopiperidin-3-yl)-3,5-difluorophenethyl)-2-methylpiperazin-1-yl)cyclohexyl)-6-(2-hydroxypropan-2-yl)-2H-indazol-5-yl)pyrrolo[1,2-b]pyridazine-7-carboxamide]: the Dmax is 98% on IRAK4 [1] (setting [5]) and 99% at IRAK4 [3]. In addition, the DC50 at IRAK4 [1] (setting [6]) is 0.8 nM; at IRAK4 [3] it was 4.8 nM. The IC50 in experiment [2] stood at 43 nM; in experiment [4], 4 nM. The figures for the Emax in experiment [2] and in experiment [4] were 94% and 74%, respectively.

Turning to `COC[C@H]1CN(CC2CN(c3cc(F)c([C@H]4CCC(=O)NC4=O)c(F)c3)C2)CCN1[C@H]1CC[C@H](n2cc3cc(NC(=O)c4ccc5cc(C#N)cnn45)c(C(C)(C)O)cc3n2)CC1` [Example 322, 3-cyano-N-(2-((1R,4r)-4-((R)-4-((1-(4-((R)-2,6-dioxopiperidin-3-yl)-3,5-difluorophenyl)azetidin-3-yl)methyl)-2-(methoxymethyl)piperazin-1-yl)cyclohexyl)-6-(2-hydroxypropan-2-yl)-2H-indazol-5-yl)pyrrolo[1,2-b]pyridazine-7-carboxamide], the values for the Dmax on IRAK4 [1] (setting [7]), at IRAK4 [1] (setting [5]) and on IRAK4 [3] were 98%, 97% and 101%, respectively. Moreover, the DC50 on IRAK4 [1] (setting [8]) worked out at 12 nM; at IRAK4 [1] (setting [6]) it was 0.7 nM; on IRAK4 [3] it was 19 nM. For the same compound, the IC50 in experiment [2] worked out at 42 nM; in experiment [4] it was 9.7 nM. Besides, the Emax amounted to 94% in experiment [2] and 81% in experiment [4].
